Experimental data taken from US20240261426A1, “CONJUGATES COMPRISING PHOSPHOANTIGENS AND THEIR USE IN THERAPY” (BYONDIS B.V., priority 2021, published 2024).

What was measured:
Vδ2 γδ T-cells [1] = assay: Functional assay: Vδ2 γδ T-cell activation (CD107a, IFNγ, TNFα) after co-culture of PBMCs with pretreated Raji cells; assay type: cell-based, human; conditions: for IFNγ production and degranulation of Vδ2 γδ T-cells compared to pretreatment with HMBPP: pre-treated Raji cells; for IFNγ production and degranulation (CD107a) of Vδ2 γδ T-cells, in words: pretreated Raji cells co-cultured with PBMCs
Description: (§1) To determine (unconjugated) phosphoantigen prodrug activity, Raji target cells were pre-incubated with XC1 and XD1, prior to co-culture with peripheral blood mononuclear cells (PBMCs) containing effector cells. Selective gammadelta T-cell activation was studied in vitro after co-culture of PBMCs with tumor cells (from the CD20-positive Burkitt's Lymphoma human tumor cell line Raji) pretreated with phosphoantigen HMBPP, phosphoantigen prodrugs XC1, XD1, or the conjugates listed in Table 1.
(§2) The CD20-positive Burkitt's Lymphoma human tumor cell line Raji (DSMZ, the German collection of Microorganisms and cell cultures GmbH (Leibniz Institute, Germany)) was used for in vitro experiments. Raji cells were cultured in complete growth medium (CGM): RPMI-1640 (Lonza, Walkersville, MD, USA) supplemented with 10% Heat-inactivated (HI) Fetal Bovine Serum (FBS) (Gibco-Life Technologies; Carlsbad, CA) and 80 U/mL Penicillin-Streptomycin solution (Lonza Group Ltd, Basel Switzerland). Raji cells were maintained at 37° C. in a humidified incubator containing 5% CO2 and sub-cultured twice a week.
For stimulation with conjugates according to the invention (ADCs), unconjugated phosphoantigen prodrugs and HMBPP, Raji cells were harvested, diluted to a concentration of 5×10^6 cells/mL and 50 μL (equivalent to 250.000 cells/well) of this cell suspension was seeded into a 96-well plate. A 2-times concentrated, 10-fold serial dilution of the prodrugs and ADC was prepared in CGM. Plated Raji cells were incubated overnight (O/N) in a humidified incubator with 5% CO2 at 37° C. with 50 μL/well of the serially-diluted compounds.
The following day, the 96 well plate with Raji cells and compounds (ADCs, unconjugated phosphoantigen prodrugs or HMBPP) was washed by adding 100 μL/well CGM, centrifugation at 300×g for 3 minutes at room temperature (RT), and removal of supernatant in order to remove excessive unbound compound.
As a source of immune cells, frozen peripheral blood mononuclear cells (PBMCs) of a healthy human donor were thawed, resuspended in CGM and placed O/N in a humidified incubator with 5% CO2 at 37° C. to let the cells recover.
The recovered PBMCs were harvested, counted and diluted to a concentration of 10×10^6 cells/mL in CGM, and 50 μL/well (equivalent to 0.5×10^6 cells/well) was added to the Raji cells. […] In all experiments, 1% Phytohemagglutinin (PHA-M, Gibco-ThermoFisher), known as an aspecific activator of immune cells, was also included in a well to serve as a positive control. Samples were incubated for 6 hours in a humidified incubator with 5% CO2 at 37° C. […]

[2] = system: NK cells, CD8+ T-cells, Vδ1 γδ T-cells; assay: Functional assay: activation of other immune cells after co-culture of PBMCs with pretreated Raji cells; assay type: cell-based, human; conditions: pretreated Raji cells co-cultured with PBMCs; PHA-M added to co-culture
Description: as §1
as §2, with “week. […]” for “week.”
The recovered PBMCs were harvested, counted and diluted to a concentration of 10×10^6 cells/mL in CGM, and 50 μL/well (equivalent to 0.5×10^6 cells/well) was added to the Raji cells. […]

Raji cells [3] = assay: Cellular binding to Raji cells (flow cytometry); parameters: species or system human
Description: Raji cells were cultured as described in Example 23. […] After an incubation time of 30 minutes at 4° C., the cells were washed twice with ice-cold FACS buffer. […] After 30 minutes at 4° C., cells were washed twice and resuspended in 150 μL ice-cold FACS buffer. Fluorescence intensities were determined by flow cytometry using the FACSVerse or FACSymphony (BD Biosciences) and indicated as the median fluorescence intensity (MFI). Curves were fitted by nonlinear regression with a variable slope (four parameters) in GraphPad Prism version 9. EC50 values were calculated in GraphPad Prism as the concentration in μg/mL that gives a response halfway between bottom and top of the curve. Binding experiments were performed N=2 or N=3 times.

Raji cells [4] = assay: Direct compound-related cell death (CellTiter-Glo, 6 days); assay type: cell-based, human; conditions: 6 days incubation, positive control
Description: Metabolic activity was assessed after 6 days, using the CellTiter-Glo™ (CTG) luminescent assay kit from Promega Corporation (Madison, WI) according to the manufacturer's instructions. Cell viability was expressed as the percentage survival relative to the average mean of untreated cells or vehicle-treated cells (only growth medium or 1% DMSO) multiplied with 100. The efficacy was calculated by subtracting the bottom of the dose response curve (DRC) from 100%.

Vδ2 γδ T-cells [5] = assay: Functional assay with pretreated CD20 positive B-cell lines (CD107a read-out); assay type: cell-based, human; conditions: all tested B-cell lines (Raji, HG-3, MEC-1, SU-DHL-4, SU-DHL-8)
Vδ2 γδ T-cells [6] = assay: Functional assay with pretreated HER2-positive cell lines; assay type: cell-based, human; conditions: pretreated HCT-116 cells (low HER2)
Vδ2 γδ T-cells [7] = assay: Functional assay with pretreated MOLM-13 or Raji cells, different DAR (CD107a); assay type: cell-based, human
Description: The functional assay was performed as disclosed in Example 23, with the exception that Raji and MOLM-13 cells were pretreated for 16 or 40 hours with antibodies/ADCs/controls (Table 13). Furthermore, CD107a degranulation levels were determined only and not IFNγ expression levels. Thus, on the third experimental days, cells were directly analyzed on the BD FACSymphony A3 Cell analyzer (BD Biosciences, San Jose, CA, USA), before incubation with BD Perm/wash. […] EC50 values were calculated in GraphPad Prism as the concentration in μg/mL that gives a response half way between bottom and top of the curve. […] Raji cells were cultured as described in Example 23. The CD123-positive acute monocytic leukemia cell line MOLM-13 (DSMZ, ACC 554, the German collection of Microorganisms and cell cultures GmbH (Leibniz Institute, Germany)) was cultured in CGM and was maintained at 37° C. in a humidified incubator containing 5% CO2 and sub-cultured twice a week.

[8] = target: T1, CD20 on Raji cells (CD20-positive Burkitt's Lymphoma human tumor cell line) (human, UniProt P11836 1-297); assay: flow cytometry on CD20-positive Raji cells, APC anti-human IgG F(ab')2 secondary, MFI curve fit; experiment 1 and 2
T1 construct: whole, on cells
T1 sequence (looked up): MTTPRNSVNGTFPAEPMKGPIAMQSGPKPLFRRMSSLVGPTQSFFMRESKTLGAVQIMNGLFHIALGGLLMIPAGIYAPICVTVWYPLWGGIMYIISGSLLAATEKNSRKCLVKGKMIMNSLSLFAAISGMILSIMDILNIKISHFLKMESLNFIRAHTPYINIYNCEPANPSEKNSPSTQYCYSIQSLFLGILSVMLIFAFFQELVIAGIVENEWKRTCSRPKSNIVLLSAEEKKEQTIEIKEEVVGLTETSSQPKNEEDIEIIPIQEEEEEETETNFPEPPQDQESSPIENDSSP

[9] = target: T1, CD20 on Raji cells (CD20-positive …); assay: flow cytometry on CD20-positive Raji cells, APC anti-human IgG F(ab')2 secondary, MFI curve fit; experiment 3 and 4
[10] = target: T1, CD20 on Raji cells (CD20-positive …); assay: flow cytometry on CD20-positive Raji cells, APC anti-human IgG F(ab')2 secondary, MFI curve fit; experiment 5, 6 and 7

C/C(=C\CCP(=O)(OCOC(=O)C(C)(C)C)OCOC(=O)C(C)(C)C)CO [XC1]
IFNγ production and degranulation of Vδ2 γδ T-cells compared to pretreatment with HMBPP (Vδ2 γδ T-cells [1]): more potently induced
IFNγ production and degranulation (CD107a) of Vδ2 γδ T-cells, in words (Vδ2 γδ T-cells [1]): dose-dependently induced IFNγ production and degranulation
activation of other immune cells (NK cells, CD8+ T-cells, Vδ1 γδ T-cells), in words [2]: without inducing direct activation of other immune cells

C/C(=C\CCP(=O)(N[C@@H](C)C(=O)OCc1ccccc1)Oc1ccccc1)CO (stereo partly shown) [XD1]
IFNγ production and degranulation of Vδ2 γδ T-cells compared to pretreatment with HMBPP (Vδ2 γδ T-cells [1]): more potently induced
IFNγ production and degranulation (CD107a) of Vδ2 γδ T-cells, in words (Vδ2 γδ T-cells [1]): dose-dependently induced IFNγ production and degranulation
activation of other immune cells (NK cells, CD8+ T-cells, Vδ1 γδ T-cells), in words [2]: without inducing direct activation of other immune cells

rituximab: Anti-CD20 monoclonal antibody (MoAb) [reference compound]
Binding to Raji cells EC50 (Raji cells [3]; Experiment 1 and 2): 0.6 µg/mL
Binding to Raji cells EC50 (Raji cells [3]; Experiment 3 and 4): 1.221 µg/mL
Binding to Raji cells EC50 (Raji cells [3]; Experiment 5, 6 and 7): 3.451 µg/mL

COC(=O)c1cc2c([nH]1)C(=O)C=C1N(C(=O)c3cc4cc(OC)c(OC)c(OC)c4[nH]3)C[C@H]3C[C@]123 [duocarmycin type toxin]
direct compound related cell death, in words (Raji cells [4]): very effective

C/C(=C\COP(=O)(O)OP(=O)(O)O)CO [HMBPP, (E)-4-Hydroxy-3-methyl-but-2-enyl pyrophosphate]
activation (degranulation) of Vδ2 γδ T-cells, in words (Vδ2 γδ T-cells [5]): induced degranulation of Vδ2 γδ T-cells
activation of Vδ2 γδ T-cells, in words (Vδ2 γδ T-cells [6]): able to activate Vδ2 γδ T-cells
Vδ2 γδ T-cell activation, in words (Vδ2 γδ T-cells [7]): capable of activating Vδ2 γδ T-cells

B1: rituximab (anti-CD20 monoclonal antibody) (antibody, V domains shown)
VH: QVQLQQPGAELVKPGASVKMSCKASGYTFTSYNMHWVKQTPGRGLEWIGAIYPGNGDTSYNQKFKGKATLTADKSSSTAYMQLSSLTSEDSAVYYCARSTYYGGDWYFNVWGAGTTVTVSA
VL: QIVLSQSPAILSASPGEKVTMTCRASSSVSYIHWFQQKPGSSPKPWIYATSNLASGVPVRFSGSGSGTSYSLTISRVEAEDAATYYCQQWTSNPPTFGGGTKLEIK
EC50 [8]: 0.6 µg/mL
EC50 [9]: 1.22 µg/mL
EC50 [10]: 3.45 µg/mL
